The results in this text go back to PubChem BioAssay (NCI).

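Compound exposure: 48 hours, 5 concentrations, 96-well plates. Abbreviation: GI50, concentration required for 50% inhibition of growth. TGI: concentration producing complete growth inhibition.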

Some test systems named below: ACHN renal; CAKI-1 renal; HS 578T breast; M14 melanoma; MDA-MB-435; NCI-H23 lung; OVCAR-8 ovarian; SK-MEL-28 melanoma; UACC-257 melanoma; UACC-62 melanoma.
Common to all, as to assay: NCI anticancer screen, dose series, 48 h

For `CCCCNC(=O)Oc1ccc(/C(=C(/C)Cc2ccc(OC)cc2)c2ccc(OCCN3CCCC3)cc2)cc1`, the GI50 in the assay with ACHN renal is 1.79 µM; with CAKI-1 renal, 1.63 µM; with HS 578T breast, 2.11 µM; in the assay on M14 melanoma it was 1.81 µM; in the assay on MDA-MB-435, 1.63 µM; with NCI-H23 lung, 2.26 µM. Moreover, the GI50 in the assay with OVCAR-8 ovarian was 2.04 µM; with SK-MEL-28 melanoma it was 1.83 µM; with UACC-257 melanoma, 1.88 µM; with UACC-62 melanoma, 1.94 µM. The TGI in the assay with ACHN renal amounted to 3.32 µM; in the assay on CAKI-1 renal, 3.5 µM; in the assay with HS 578T breast, 4.81 µM; in the assay on M14 melanoma it was 3.48 µM; in the assay with MDA-MB-435, 3.1 µM; in the assay with NCI-H23 lung, 5.67 µM. The TGI in the assay on OVCAR-8 ovarian was found to be 4.38 µM; in the assay with SK-MEL-28 melanoma, 3.57 µM; in the assay on UACC-257 melanoma it was 3.44 µM; in the assay on UACC-62 melanoma, 3.59 µM.

As for `NCCOc1ccccc1/C=C1\c2ccccc2-c2ccc([N+](=O)[O-])cc21`, the GI50 in the assay with ACHN renal is 1.38 µM; in the assay with CAKI-1 renal, 1.38 µM; in the assay on HS 578T breast it was 1.72 µM; with M14 melanoma, 1.65 µM; in the assay with MDA-MB-435 it was 1.68 µM; with NCI-H23 lung, 1.7 µM. In addition, the GI50 in the assay on OVCAR-8 ovarian is 1.53 µM; in the assay with SK-MEL-28 melanoma it was 1.75 µM; in the assay on UACC-257 melanoma, 1.7 µM; in the assay with UACC-62 melanoma, 1.54 µM. The TGI came to 2.69 µM with ACHN renal; 2.72 µM in the assay on CAKI-1 renal; 3.79 µM in the assay on HS 578T breast; 3.02 µM in the assay with M14 melanoma; 3.09 µM with MDA-MB-435; 3.23 µM with NCI-H23 lung. In addition, the TGI is 3.33 µM in the assay with OVCAR-8 ovarian, 3.18 µM in the assay on SK-MEL-28 melanoma, 3.31 µM in the assay with UACC-257 melanoma and 2.92 µM in the assay with UACC-62 melanoma.

Take `COc1ccc(/C=C2\CN(Cc3cn(CCNc4ccnc5cc(Cl)ccc45)nn3)C/C(=C\c3ccc(OC)c(OC)c3)C2=O)cc1OC`: the GI50 with ACHN renal is 5.25 µM; in the assay on CAKI-1 renal it was 7.22 µM; with HS 578T breast, 6.49 µM; with M14 melanoma, 3.35 µM; in the assay on MDA-MB-435, 3.01 µM; in the assay on NCI-H23 lung it was 7.45 µM. Moreover, the GI50 in the assay on OVCAR-8 ovarian was 3.94 µM; in the assay on SK-MEL-28 melanoma, 2.29 µM; in the assay with UACC-257 melanoma, 4.8 µM; in the assay with UACC-62 melanoma, 2.14 µM. In addition, the TGI in the assay with ACHN renal was 19.9 µM; with CAKI-1 renal, more than 100 µM; in the assay with HS 578T breast, more than 100 µM; in the assay with M14 melanoma it was 12.5 µM; with MDA-MB-435, 19.1 µM; in the assay with NCI-H23 lung, 37.8 µM. In addition, the TGI with OVCAR-8 ovarian was more than 100 µM; in the assay on SK-MEL-28 melanoma it was 5.97 µM; with UACC-257 melanoma it was 23.1 µM; in the assay with UACC-62 melanoma, 5.39 µM.

In the case of `c1cncc(C2Nc3cccc4cccc(c34)N2)c1`, the GI50 was 17.3 µM in the assay on ACHN renal; 48.7 µM with CAKI-1 renal; 73.4 µM with HS 578T breast; 46 µM in the assay with M14 melanoma; 35.7 µM with MDA-MB-435; 77.6 µM in the assay with NCI-H23 lung. Also, the GI50 is 20 µM in the assay with OVCAR-8 ovarian, 64 µM with SK-MEL-28 melanoma and 38.7 µM with UACC-62 melanoma. The TGI in the assay on ACHN renal was 34.5 µM; in the assay with CAKI-1 renal, more than 100 µM; in the assay on HS 578T breast, more than 100 µM; in the assay on M14 melanoma it was more than 100 µM; with MDA-MB-435 it was more than 100 µM; in the assay with NCI-H23 lung it was more than 100 µM. Besides, the TGI was 48.6 µM in the assay on OVCAR-8 ovarian, more than 100 µM in the assay with SK-MEL-28 melanoma and more than 100 µM in the assay on UACC-62 melanoma.

For `Cc1cc(N2CCCC2)nc(NCc2cc(Nc3ccnc4cc(Cl)ccc34)ccc2F)n1`, the GI50 in the assay on ACHN renal is 1.53 µM; in the assay on CAKI-1 renal, 1.38 µM; in the assay on HS 578T breast it was 1.51 µM; in the assay with M14 melanoma, 1.37 µM; in the assay on MDA-MB-435 it was 1.51 µM; in the assay on NCI-H23 lung it was 1.3 µM. For the same compound, the values for the GI50 in the assay with OVCAR-8 ovarian, in the assay with SK-MEL-28 melanoma and in the assay on UACC-257 melanoma were 1.69 µM, 1.78 µM and 1.31 µM, respectively. In addition, the TGI was found to be 3.06 µM with ACHN renal; 2.86 µM in the assay with CAKI-1 renal; 3.91 µM in the assay with HS 578T breast; 2.85 µM with M14 melanoma; 2.99 µM with MDA-MB-435; 3.63 µM with NCI-H23 lung. Also, the TGI in the assay on OVCAR-8 ovarian amounted to 3.27 µM; with SK-MEL-28 melanoma it was 3.48 µM; with UACC-257 melanoma, 2.66 µM.

`C[C@]1(Cn2ccnn2)C(C(=O)O)N2C(=O)CC2S1(=O)=O` (stereo not given in full): the GI50 with ACHN renal, in the assay on CAKI-1 renal, with HS 578T breast, in the assay with M14 melanoma, with MDA-MB-435 and with NCI-H23 lung was more than 100 µM throughout. The GI50 in the assay with SK-MEL-28 melanoma, in the assay with UACC-257 melanoma and in the assay on UACC-62 melanoma was more than 100 µM each time. Moreover, the TGI in the assay with ACHN renal, in the assay with CAKI-1 renal, in the assay with HS 578T breast, in the assay on M14 melanoma, in the assay on MDA-MB-435 and with NCI-H23 lung was more than 100 µM throughout. For the same compound, the TGI in the assay on SK-MEL-28 melanoma, with UACC-257 melanoma and in the assay on UACC-62 melanoma was more than 100 µM throughout.

Consider `COC1C(OC(=O)/C=C/C=C/C=C/C=C\C(=O)O)CCC2(CO2)C1C1(C)OC1CC=C(C)C` (stereo not given), for which the GI50 in the assay on ACHN renal, in the assay on CAKI-1 renal, in the assay with HS 578T breast, in the assay with M14 melanoma, with MDA-MB-435 and with NCI-H23 lung was more than 200 µM throughout. Besides, the GI50 in the assay on SK-MEL-28 melanoma and in the assay with UACC-62 melanoma was more than 200 µM each time. Moreover, the TGI in the assay on ACHN renal, in the assay on CAKI-1 renal, in the assay with HS 578T breast, with M14 melanoma, in the assay with MDA-MB-435 and in the assay on NCI-H23 lung was more than 200 µM in each case. Moreover, the TGI with SK-MEL-28 melanoma and with UACC-62 melanoma was more than 200 µM in each case.
